In patent publication US20240225893A9, “SUSTAINED-RELEASE IMPLANTS FOR LOWERING INTRAOCULAR PRESSURE WITH EXTENDED DURATION OF EFFECT” (Allergan, Inc., priority 2017, published 2024):
Where two headings read alike, the source gives them in different places.

How the values were obtained:
[1] = Systemic pharmacokinetics after intracameral Bimatoprost SR Gen 1 (study TX09051); format: in vivo; conditions: monkey; intracameral 30 μg (Gen 1)
[2] = Systemic pharmacokinetics after topical bimatoprost (study PK-98-119); format: in vivo; conditions: human; topical bimatoprost 0.03% QD
[3] = Aqueous humor pharmacokinetics after topical bimatoprost (study PK10130); format: in vivo; conditions: dog; topical bimatoprost 0.03% QD; LLOQ 0.200 ng/mL (AGN-192024)
[4] = Systemic pharmacokinetics after topical bimatoprost (study 6177-110); format: in vivo; conditions: monkey, blood, LLOQ 0.100 ng/mL (AGN-191522)
[5] = human; topical bimatoprost 0.03% QD; cited from earlier work
[6] = Ocular pharmacokinetics after topical bimatoprost (study PK-97-032); format: in vivo; conditions: monkey; topical bimatoprost 0.1% BID
[7] = test system: prostaglandin (PG) sensitive receptors; conditions: cited from earlier work
[8] = Systemic pharmacokinetics after intracameral Bimatoprost SR (study TX12102); format: in vivo; conditions: dogs; intracameral Bimatoprost SR 10, 15 & 20 μg; blood; LLOQ 0.025 ng/mL (AGN-192024), 0.05 ng/mL (AGN-191522)
[9] = test system: glaucoma patients; test: Phase 1/2 prospective 24-month paired-eye clinical trial of BimSR (Example 1); format: in vivo, human; conditions: month 24, topical bimatoprost solution 0.03% once a day
Experimental: A phase 1/2, prospective, 24-month, paired-eye clinical trial was conducted in 75 glaucoma patients with study eye baseline mean TOP of 25.2 (range 22-36) mmHg after washout. An intraocular implant having the composition as described in US Patent Publication No. 2015-0118279 as formulation 2, as described in TABLE 1 of the specification (6, 10, 15, or 20 μg dose strength) was administered intracamerally in the study eye; the fellow eye was treated with topical bimatoprost solution 0.03% once a day. Long-term TOP-lowering effect was assessed by TOP, time to additional TOP-lowering treatment, and percentage of patients without additional TOP-lowering treatment. Patients were permitted rescue topical medication or a single repeat treatment with BimSR. Results are presented for the 10 and 15 μg dose strengths of BimSR (n=21 for each) that are continuing in development.
Up to 4 and 6 months, 95.2% and 66.7% of patients, respectively, were controlled on the initial BimSR 10 or 15 μg treatment without need for rescue medication or implant retreatment. The median time to additional TOP-lowering treatment after BimSR administration was 38-39 weeks.
A single administration of BimSR 10 or 15 μg controlled TOP up to 6 months in 66.7% of patients and 23.8% of patients at 24 months.

[10] = Ocular pharmacokinetics after topical bimatoprost (study PK-98-003); format: in vivo; conditions: monkey; topical bimatoprost 0.1% QD

Compound	Systemic Concentration [1]	Systemic Concentration [2]	Aqueous Humor Concentration [3]	Systemic Concentration ([4]; topical bimatoprost 0.03% QD)	Systemic Concentration ([4]; topical bimatoprost 0.1% BID)	Aqueous Humor Concentration [5]	Aqueous Humor Concentration [6]	Tissues Concentration Cornea [6]	Tissues Concentration ICB [6]	interaction with prostaglandin (PG) sensitive receptors [7]	Systemic Concentration [8]	mean (SD) TOP (intraocular pressure) ([9]; fellow eyes of BimSR 10 μg group)	mean (SD) TOP (intraocular pressure) ([9]; fellow eyes of BimSR 15 μg group)	Aqueous Humor Concentration [10]	Tissues Concentration Cornea [10]	Tissues Concentration ICB [10]
O=C(O)CCC/C=C\C[C@@H]1[C@@H](/C=C/[C@@H](O)CCc2ccccc2)[C@H](O)C[C@@H]1O [AGN-191522, bimatoprost acid]	0.165 ng/mL	2.41 ng/mL	2.0 ng/mL	BLQ^e	BLQ^e	8.55 ng/mL	–	–	–	–	–	–	–	–	–	–
CCNC(=O)CCC/C=C\C[C@@H]1[C@@H](/C=C/[C@@H](O)CCc2ccccc2)[C@H](O)C[C@@H]1O [AGN-192024, bimatoprost]	0.280 ng/mL	0.0822 ng/mL	BLQ^d	0.397 ng/mL	1.92 ng/mL	2.37 ng/mL	13.0 ng/mL	2890 ng/g	1369 ng/g	no meaningful interaction	BLQ^a	16.4 (2.1) mmHg	15.4 (2.4) mmHg	34.5 ng/mL	558 ng/g	797 ng/g
